Laboratory results taken from ChEMBL document CHEMBL1681705, “Optimisation of ITK inhibitors through successive iterative design cycles” (Bioorg Med Chem Lett, 2011).

How the values were obtained:
[1] = target: Tyrosine-protein kinase CSK (Homo sapiens) (UniProt P41240); assay: Inhibition of CSK at 1 uM; values are per cent of control
[2] = target: T1, Tyrosine-protein kinase ITK/TSK (Homo sapiens) (UniProt Q08881); assay: Inhibition of Itk at 0.1 uM; values are per cent of control
T1 sequence (whole entry): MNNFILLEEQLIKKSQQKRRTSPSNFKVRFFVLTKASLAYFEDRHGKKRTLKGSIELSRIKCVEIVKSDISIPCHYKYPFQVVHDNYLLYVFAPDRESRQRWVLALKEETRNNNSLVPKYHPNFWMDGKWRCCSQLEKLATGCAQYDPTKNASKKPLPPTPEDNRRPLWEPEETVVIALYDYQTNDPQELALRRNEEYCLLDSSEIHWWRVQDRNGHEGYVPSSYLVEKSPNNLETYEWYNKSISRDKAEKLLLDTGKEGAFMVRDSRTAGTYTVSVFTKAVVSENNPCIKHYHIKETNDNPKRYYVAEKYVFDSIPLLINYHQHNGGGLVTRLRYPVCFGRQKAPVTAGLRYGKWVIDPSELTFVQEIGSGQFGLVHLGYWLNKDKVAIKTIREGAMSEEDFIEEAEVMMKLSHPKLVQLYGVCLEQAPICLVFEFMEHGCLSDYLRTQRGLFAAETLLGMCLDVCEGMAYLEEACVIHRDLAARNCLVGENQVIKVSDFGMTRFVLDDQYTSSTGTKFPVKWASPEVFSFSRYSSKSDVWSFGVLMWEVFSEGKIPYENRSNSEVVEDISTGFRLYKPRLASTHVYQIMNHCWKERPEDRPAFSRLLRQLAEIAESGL

[3] = target: MAP kinase-interacting serine/threonine-protein kinase 2 (Homo sapiens) (UniProt Q9HBH9); assay: Inhibition of Mnk2 at 1 uM; values are per cent of control
[4] = target: T2, Protein kinase C epsilon type (Homo sapiens) (UniProt Q02156); assay: Inhibition of PKCepsilon at 1 uM; values are per cent of control
T2 sequence (whole entry): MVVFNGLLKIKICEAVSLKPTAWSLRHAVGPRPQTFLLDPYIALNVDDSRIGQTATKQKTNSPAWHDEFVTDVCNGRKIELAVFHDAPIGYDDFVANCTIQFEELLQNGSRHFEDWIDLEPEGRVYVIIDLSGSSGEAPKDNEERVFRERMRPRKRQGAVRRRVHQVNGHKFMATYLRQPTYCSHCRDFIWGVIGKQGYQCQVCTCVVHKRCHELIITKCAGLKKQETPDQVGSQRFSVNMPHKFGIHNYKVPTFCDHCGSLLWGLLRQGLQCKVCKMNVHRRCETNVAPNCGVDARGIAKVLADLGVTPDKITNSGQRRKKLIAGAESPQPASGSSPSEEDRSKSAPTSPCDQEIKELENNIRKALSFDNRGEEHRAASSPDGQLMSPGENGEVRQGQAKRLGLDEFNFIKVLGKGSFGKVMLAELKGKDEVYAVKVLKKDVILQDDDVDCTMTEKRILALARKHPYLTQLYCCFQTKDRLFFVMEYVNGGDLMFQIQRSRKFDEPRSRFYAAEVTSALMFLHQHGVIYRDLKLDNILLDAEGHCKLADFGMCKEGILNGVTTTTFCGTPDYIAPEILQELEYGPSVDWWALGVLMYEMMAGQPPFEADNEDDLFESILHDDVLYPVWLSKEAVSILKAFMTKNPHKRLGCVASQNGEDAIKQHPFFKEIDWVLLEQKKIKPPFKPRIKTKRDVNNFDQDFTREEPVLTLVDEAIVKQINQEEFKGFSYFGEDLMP

[5] = target: Dual specificity mitogen-activated protein kinase kinase 1 (Homo sapiens) (UniProt Q02750); assay: Inhibition of MEK1 at 1 uM; values are per cent of control
[6] = target: T3, Aurora kinase A (Homo sapiens) (UniProt O14965); assay: Inhibition of aurora-A at 0.1 uM; values are per cent of control
T3 sequence (whole entry): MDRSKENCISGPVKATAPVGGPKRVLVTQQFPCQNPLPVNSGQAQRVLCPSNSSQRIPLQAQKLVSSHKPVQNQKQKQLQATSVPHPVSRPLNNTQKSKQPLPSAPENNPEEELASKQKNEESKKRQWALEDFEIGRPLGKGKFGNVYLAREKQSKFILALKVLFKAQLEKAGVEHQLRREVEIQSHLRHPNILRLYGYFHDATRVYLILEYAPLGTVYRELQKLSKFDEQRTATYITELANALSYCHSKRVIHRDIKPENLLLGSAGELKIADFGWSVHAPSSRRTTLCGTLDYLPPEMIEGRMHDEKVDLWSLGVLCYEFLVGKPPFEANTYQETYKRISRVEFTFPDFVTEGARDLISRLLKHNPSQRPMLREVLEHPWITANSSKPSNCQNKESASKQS

[7] = target: Angiopoietin-1 receptor (Homo sapiens) (UniProt Q02763); assay: Inhibition of Tie2 at 1 uM; values are per cent of control
[8] = target: Tyrosine-protein kinase Fer (Homo sapiens) (UniProt P16591); assay: Inhibition of Fer at 0.1 uM; values are per cent of control
Chain of Tyrosine-protein kinase Fer (Homo sapiens) (P16591 whole entry, looked up): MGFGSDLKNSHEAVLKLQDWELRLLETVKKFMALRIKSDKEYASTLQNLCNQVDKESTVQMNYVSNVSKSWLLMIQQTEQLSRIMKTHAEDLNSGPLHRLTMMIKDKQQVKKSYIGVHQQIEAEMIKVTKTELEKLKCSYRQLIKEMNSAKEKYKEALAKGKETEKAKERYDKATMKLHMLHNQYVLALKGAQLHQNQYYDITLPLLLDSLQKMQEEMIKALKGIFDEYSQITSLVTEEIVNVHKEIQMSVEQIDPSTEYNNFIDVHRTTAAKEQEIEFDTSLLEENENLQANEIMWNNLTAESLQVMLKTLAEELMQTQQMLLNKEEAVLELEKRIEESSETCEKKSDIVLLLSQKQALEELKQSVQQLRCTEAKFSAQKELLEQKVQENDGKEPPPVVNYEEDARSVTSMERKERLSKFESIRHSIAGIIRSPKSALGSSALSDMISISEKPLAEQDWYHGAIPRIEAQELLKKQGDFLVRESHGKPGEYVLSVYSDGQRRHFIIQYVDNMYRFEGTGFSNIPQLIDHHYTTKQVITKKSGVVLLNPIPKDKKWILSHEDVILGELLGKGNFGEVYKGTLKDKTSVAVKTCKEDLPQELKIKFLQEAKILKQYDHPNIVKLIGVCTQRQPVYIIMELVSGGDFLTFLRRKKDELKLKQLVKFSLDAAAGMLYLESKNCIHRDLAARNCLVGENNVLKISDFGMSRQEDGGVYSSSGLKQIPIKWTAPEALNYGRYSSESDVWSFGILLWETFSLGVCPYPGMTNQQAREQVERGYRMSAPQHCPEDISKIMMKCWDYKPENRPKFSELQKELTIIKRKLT

Chain of Angiopoietin-1 receptor (Homo sapiens) (Q02763 whole entry): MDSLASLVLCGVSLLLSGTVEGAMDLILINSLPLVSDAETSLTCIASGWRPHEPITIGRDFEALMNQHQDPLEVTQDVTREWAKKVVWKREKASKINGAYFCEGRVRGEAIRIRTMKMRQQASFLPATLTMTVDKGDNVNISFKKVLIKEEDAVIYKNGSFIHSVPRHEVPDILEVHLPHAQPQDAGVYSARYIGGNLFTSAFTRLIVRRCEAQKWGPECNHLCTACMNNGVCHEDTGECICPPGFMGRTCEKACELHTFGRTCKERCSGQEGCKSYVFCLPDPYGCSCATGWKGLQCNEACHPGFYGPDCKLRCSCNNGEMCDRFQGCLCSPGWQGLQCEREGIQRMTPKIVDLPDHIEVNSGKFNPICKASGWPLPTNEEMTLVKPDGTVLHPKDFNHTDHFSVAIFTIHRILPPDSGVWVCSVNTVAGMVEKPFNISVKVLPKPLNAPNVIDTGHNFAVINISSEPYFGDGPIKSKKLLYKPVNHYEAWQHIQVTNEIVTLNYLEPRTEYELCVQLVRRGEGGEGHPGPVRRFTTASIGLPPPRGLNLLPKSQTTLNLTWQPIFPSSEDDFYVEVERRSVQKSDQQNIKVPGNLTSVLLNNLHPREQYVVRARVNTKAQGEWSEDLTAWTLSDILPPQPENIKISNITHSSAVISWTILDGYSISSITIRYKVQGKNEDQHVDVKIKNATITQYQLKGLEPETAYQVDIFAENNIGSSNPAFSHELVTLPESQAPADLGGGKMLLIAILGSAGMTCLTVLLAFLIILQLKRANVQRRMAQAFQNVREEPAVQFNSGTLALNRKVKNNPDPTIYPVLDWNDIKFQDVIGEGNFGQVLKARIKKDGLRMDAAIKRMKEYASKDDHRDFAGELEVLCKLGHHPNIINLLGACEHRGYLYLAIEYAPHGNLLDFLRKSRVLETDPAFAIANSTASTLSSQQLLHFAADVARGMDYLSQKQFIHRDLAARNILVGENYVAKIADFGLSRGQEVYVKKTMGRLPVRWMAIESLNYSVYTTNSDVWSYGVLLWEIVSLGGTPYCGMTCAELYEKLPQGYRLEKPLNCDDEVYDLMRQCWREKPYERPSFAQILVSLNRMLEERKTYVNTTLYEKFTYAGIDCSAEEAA
Chain of Tyrosine-protein kinase CSK (Homo sapiens) (P41240 2-450 limits assumed): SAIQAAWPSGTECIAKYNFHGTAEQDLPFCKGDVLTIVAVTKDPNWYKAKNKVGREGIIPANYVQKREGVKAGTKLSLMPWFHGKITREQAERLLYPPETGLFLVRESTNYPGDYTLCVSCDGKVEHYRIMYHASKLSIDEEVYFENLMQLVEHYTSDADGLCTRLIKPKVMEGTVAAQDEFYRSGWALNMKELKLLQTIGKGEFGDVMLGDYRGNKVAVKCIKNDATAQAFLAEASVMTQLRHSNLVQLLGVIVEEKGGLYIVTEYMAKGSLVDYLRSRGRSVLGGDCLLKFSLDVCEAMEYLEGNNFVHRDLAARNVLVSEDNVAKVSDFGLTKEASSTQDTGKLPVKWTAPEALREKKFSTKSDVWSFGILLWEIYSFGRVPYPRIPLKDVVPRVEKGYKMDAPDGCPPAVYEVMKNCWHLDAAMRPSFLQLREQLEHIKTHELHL
Chain of Dual specificity mitogen-activated protein kinase kinase 1 (Homo sapiens) (Q02750 whole entry): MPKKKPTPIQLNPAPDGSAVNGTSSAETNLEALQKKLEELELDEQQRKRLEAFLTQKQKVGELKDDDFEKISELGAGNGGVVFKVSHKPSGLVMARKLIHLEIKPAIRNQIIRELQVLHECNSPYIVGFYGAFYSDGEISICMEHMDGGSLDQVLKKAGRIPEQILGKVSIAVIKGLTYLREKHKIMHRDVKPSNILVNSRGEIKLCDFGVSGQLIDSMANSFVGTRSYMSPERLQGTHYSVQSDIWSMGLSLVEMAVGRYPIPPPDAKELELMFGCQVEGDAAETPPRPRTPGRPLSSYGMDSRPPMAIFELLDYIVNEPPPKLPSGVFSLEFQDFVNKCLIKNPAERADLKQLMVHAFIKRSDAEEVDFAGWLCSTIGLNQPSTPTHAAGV
Chain of MAP kinase-interacting serine/threonine-protein kinase 2 (Homo sapiens) (Q9HBH9 whole entry, looked up): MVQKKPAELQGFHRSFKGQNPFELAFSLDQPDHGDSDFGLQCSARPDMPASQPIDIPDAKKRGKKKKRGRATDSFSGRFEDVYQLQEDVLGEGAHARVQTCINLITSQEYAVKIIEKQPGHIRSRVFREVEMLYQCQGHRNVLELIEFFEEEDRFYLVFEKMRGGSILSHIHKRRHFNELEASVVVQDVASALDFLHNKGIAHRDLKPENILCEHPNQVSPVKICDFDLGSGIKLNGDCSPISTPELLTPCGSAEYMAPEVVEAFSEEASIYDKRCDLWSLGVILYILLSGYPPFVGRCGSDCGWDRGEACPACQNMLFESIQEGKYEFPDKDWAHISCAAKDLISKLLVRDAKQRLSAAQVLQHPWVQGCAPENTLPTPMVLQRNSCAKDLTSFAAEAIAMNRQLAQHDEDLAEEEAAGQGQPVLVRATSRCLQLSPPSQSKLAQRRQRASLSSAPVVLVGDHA

SMILES | residual activity [1] | residual activity [2] | residual activity [3] | residual activity [4] | residual activity [5] | residual activity [6] | residual activity [7] | residual activity [8]
Cc1ccc2cc(-c3n[nH]c4ccc(NC5CCN(Cc6ccccc6)CC5)cc34)[nH]c2c1 | 95% | 14% | 44% | 67% | 87% | 34% | 8% | 49%
Cc1ccc2cc(-c3n[nH]c4ccc(NC5CCNC5)cc34)[nH]c2c1 (stereo unspecified) | 56% | 41% | 14% | 21% | 13% | 5% | 1% | 5%
